Assay results as given in PMC8954547, “Nonpeptidic Z360-Analogs Tagged with Trivalent Radiometals as Anti-CCK2R Cancer Theranostic Agents: A Preclinical Study” (Pharmaceutics, 2022).
*1 amine or outer side, *2 acyl side, *3 side chain or, on linkers, in order; H or OH if unused. Where a SMILES comes first, the peptide text is derived from it. [ ]: non-standard residue; d: D form. The star is where a group is joined. X1 = CC(C)(C)C(=O)CN1C(=O)[C@H](N*)CN(C2CCCCC2)c2ccccc21; pGlu = O=C1CC[C@@H](C(=O)O)N1; PEG3 = NCCOCCOCCOCCC(=O)O; 3Abz = Nc1cccc(C(=O)O)c1; X2 = NCCNCC(CNCCN)C(=O)*; CO = O=C([*:1])[*:2]

Key:
[1] = molecular target: T1, human CCK2R (Homo sapiens, UniProt P32239); parameters: method as in PMID 32568549; details: cited from earlier work
T1 construct: host or cells: HEK293 clone #21 (HEK293-hCCK2R/YC3.60), stably co-expressing the Ca2+ biosensor YC3.60
T1 sequence (P32239 1-447): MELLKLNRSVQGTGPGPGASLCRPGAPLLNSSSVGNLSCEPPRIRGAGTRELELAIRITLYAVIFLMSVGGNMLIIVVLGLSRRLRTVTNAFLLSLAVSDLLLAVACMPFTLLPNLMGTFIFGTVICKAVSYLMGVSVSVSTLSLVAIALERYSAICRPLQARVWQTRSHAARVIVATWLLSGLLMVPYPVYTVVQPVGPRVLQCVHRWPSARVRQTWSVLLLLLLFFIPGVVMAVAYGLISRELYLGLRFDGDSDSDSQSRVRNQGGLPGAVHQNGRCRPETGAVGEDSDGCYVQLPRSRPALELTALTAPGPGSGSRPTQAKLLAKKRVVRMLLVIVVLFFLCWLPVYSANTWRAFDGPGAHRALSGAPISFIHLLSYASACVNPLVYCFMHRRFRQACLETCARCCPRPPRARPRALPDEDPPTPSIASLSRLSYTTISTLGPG

[2] = molecular target: T1, human CCK2R; experiment: FRET-based Ca2+ mobilization assay in HEK293-hCCK2R/YC3.60 cells; format: cell-based
Method: For most biological experiments, HEK293 cells transfected to stably express the human CCK2i4svR splice variant were used, kindly provided by Dr. P. Laverman (Radboud University Nijmegen Medical Center, Nijmegen, The Netherlands) and Prof. M. R. Hellmich (University of Texas Medical Branch, Galveston, TX, USA), while non-transfected wtHEK293 cells served as negative controls. Cells were cultured in DMEM with GlutaMAX-I supplemented with 10% (v/v) fetal bovine serum (FBS), 100 U/mL penicillin and 100 μg/mL streptomycin and kept in a controlled humidified air containing 5% CO2 at 37 °C; the medium for transfected cells was additionally supplemented with 400 μg/mL G418. All culture media were purchased from Gibco BRL, Life Technologies (Grand Island, NY, USA) and supplements were supplied by Biochrom KG Seromed (Berlin, Germany). For Ca^2+-mobilization assays, HEK293 cell clones (generated by O.G. Chepurny in the G.G. Holz laboratory) were transfected to stably co-express either both the human CCK2R and the Ca^2+ biosensor YC3.60 (clone #21) or only YC3.60 (clone #5, negative controls devoid of CCK2R expression) (Supplementary File). Ca^2+ mobilization assays were conducted by FRET-based detection of Ca^2+ in HEK293-hCCK2R/YC3.60 and HEK293-YC3.60 cells (negative controls) for GAS1/2/3 as well as for DG2, [Leu^15]gastrin-17 and Z360 (controls), as outlined in the Supplementary File. […]
Table S2. Analytical HPLC Data for (Radio)Metal-Tagged GAS1/2/3 (tR (min) gamma/UV trace). compound - [67Ga]Ga/[natGa]Ga [111In]In/[natIn]In [177Lu]Lu/[natLu]Lu […]
(§1) Purity as determined by HPLC exceeded 97% in all cases. system 1 was applied: RP-HPLC with twin UV detection at 220 nm and gamma detection; a Symmetry Shield RP18 column (5 μm, 3.9 mm × 150 mm) was eluted at a flow rate of 1 mL/min with linear gradient: 100%A/0% B to 70%A/30% B in 5 min and then 70%A/30% B to 55%A/45% B in 60 min, with A = 0.1% TFA in H2O (v/v) and B = MeCN.
Preparation of [natGa]Ga-GAS1/2/3, [natIn]In-GAS1/2/3 and [natLu]Lu-GAS1/3 To an Eppendorf Protein LoBind® centrifuge tube containing GAS1/2/3 precursor stock solution (60 μL, 120 μg, ≈60 nmol), a stock solution (60 μL, 2 mM, 120 nmol) of the respective nitrate salt dissolved in 1 M sodium acetate buffer of pH 4.0 (for gallium), 4.6 (for indium) and 5.0 (for lutetium) was added. The mixture was heated at 75 °C for 1 h. […]
action mixture using HPLC system 1, allowing for base line separation of metal-tagged from metal-free GAS1/2/3. Retention times (UV trace, tR in min) of all GAS species were included in Table S2. The metal-tagged GAS solutions were used as such in in vitro com-petition binding assays assuming a 0.5 mM CCK2R-ligand concentration.
Methods for FRET-based detection of Ca2+ in HEK293 cells were descri bed previ ousl y. The clone #21 HEK293 cell line (HEK293-hCCK2R/YC3.60) stably co-expressing the human CCK2R and the Ca2+ biosensor YC3.60 was generated a ccording to published methods. The clone #5 HEK293 cell line (HEK293-YC3.60) that expressed only YC3.60 served as a negative control and was generated in a similar matter. […] The human CCK2R (NM_176875) in pCMV6-Entry vector contained the receptor’s complete open reading frame with a Myc-DDK epitope tag (OriGene Technologies; Cat. No. R200676). Test compounds included human [Leu15]-gastrin- […]

[3] = molecular target: T2, human CCK2i4svR splice variant (Homo sapiens, UniProt P32239); experiment: Competition binding against [125I][I-Tyr12,Leu15]gastrin-17 in HEK293-CCK2i4svR cell membranes; details: vs [125I][I-Tyr12,Leu15]gastrin-17, HEK293-CCK2i4svR cell membranes, 1 h 22 °C; mean ± SD
T2 construct: expressed in transfected cells; membrane homogenates
T2 sequence (P32239 1-516 isoform P32239-2): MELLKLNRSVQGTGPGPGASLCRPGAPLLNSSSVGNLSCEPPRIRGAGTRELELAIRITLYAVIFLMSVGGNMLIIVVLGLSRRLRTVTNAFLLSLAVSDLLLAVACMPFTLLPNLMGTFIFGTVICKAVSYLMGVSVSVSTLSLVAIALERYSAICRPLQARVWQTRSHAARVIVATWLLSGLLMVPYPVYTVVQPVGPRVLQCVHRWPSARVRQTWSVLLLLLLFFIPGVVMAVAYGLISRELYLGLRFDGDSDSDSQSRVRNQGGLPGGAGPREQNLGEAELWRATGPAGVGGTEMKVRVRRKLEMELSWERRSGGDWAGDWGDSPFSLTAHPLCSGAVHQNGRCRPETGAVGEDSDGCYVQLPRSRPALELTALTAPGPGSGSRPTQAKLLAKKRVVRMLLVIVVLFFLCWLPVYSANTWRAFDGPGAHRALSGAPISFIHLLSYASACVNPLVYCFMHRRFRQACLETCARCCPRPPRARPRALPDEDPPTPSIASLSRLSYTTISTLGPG
Method: Competition binding assays for the metal-free GAS1/2/3 and the corresponding metal-tagged [^natGa]Ga/[^natIn]In/[^natLu]Lu-GAS1/3 and [^natGa]Ga/[^natIn]In-GAS2 analogs were conducted against the [^125I][I-Tyr^12,Leu^15]gastrin-17 radioligand in membrane homogenates harvested from HEK293-CCK2i4svR cells, as previously described. Briefly, each of the above analogs, or unmodified Z360 serving as control, was incubated in triplicates of increasing concentrations (10^−13–10^−6 M) with [^125I][I-Tyr^12,Leu^15]gastrin-17 (50 pM, ≈40,000 cpm) and membrane homogenate in binding buffer (300 µL, pH 7.4, 50 mM HEPES, 1% BSA, 5.5 mM MgCl2, 35 µM bacitracin) for 1 h at 22 °C. Incubation was interrupted by rapid filtration through glass fiber filters (Whatman GF/B, presoaked in binding buffer for at least 1 h) on a Brandel Cell Harvester (Adi Hassel Ingenieur Büro, Munich, Germany) and subsequent rinsing with ice-cold washing buffer (10 mM HEPES pH 7.4, 150 mM NaCl). The radioactivity content of individual filters was measured in a gamma counter (automated multi-sample well-type instrument with a NaI(Tl) 3′ crystal, Canberra Packard Cobra^TM Quantum U5003/1, Auto-Gamma® counting system). The 50% inhibitory concentration (IC50) was determined by nonlinear regression analysis according to a one-site model using PRISM 6 (Graph Pad Software, San Diego, CA, USA). Values are expressed as mean ± standard deviation (SD) of three independent experiments performed in triplicate.

[4] = system: HEK293-YC3.60 cells; experiment: FRET-based Ca2+ mobilization assay in HEK293-YC3.60 cells (negative controls devoid of CCK2R); format: cell-based, human; details: HEK293-YC3.60 clone #5
Method: For most biological experiments, HEK293 cells transfected to stably express the human CCK2i4svR splice variant were used, kindly provided by Dr. P. Laverman (Radboud University Nijmegen Medical Center, Nijmegen, The Netherlands) and Prof. M. R. Hellmich (University of Texas Medical Branch, Galveston, TX, USA), while non-transfected wtHEK293 cells served as negative controls. Cells were cultured in DMEM with GlutaMAX-I supplemented with 10% (v/v) fetal bovine serum (FBS), 100 U/mL penicillin and 100 μg/mL streptomycin and kept in a controlled humidified air containing 5% CO2 at 37 °C; the medium for transfected cells was additionally supplemented with 400 μg/mL G418. […]
as §1, with “MeCN. […]” for “MeCN.”
Methods for FRET-based detection of Ca2+ in HEK293 cells were descri bed previ ousl y. […] The human CCK2R (NM_176875) in pCMV6-Entry vector contained the receptor’s complete open reading frame with a Myc-DDK epitope tag (OriGene Technologies; Cat. No. R200676). […]

Row | Concentration at which the CCK2R is activated (Ca2+ mobilization) [2] | SMILES | Functional profile at the CCK2R [1] | Concentration threshold for agonistic properties (Ca2+ mobilization) [2] | IC50 [3] | Ca2+ response in cells devoid of CCK2R expression [4]
1 |  | CC(C)(C)C(=O)CN1C(=O)[C@H](NC(=O)Nc2cccc(C(=O)NCCOCCOCCOCCC(=O)N[C@H](CCC(=O)O)C(=O)N[C@H](CCC(=O)O)C(=O)N[C@H](CCC(=O)O)C(=O)N[C@H](CCC(=O)O)C(=O)N[C@@H](CCCCNC(=O)C(CNCCN)CNCCN)C(=O)O)c2)CN(C2CCCCC2)c2ccccc21 [DGA1, Z360-PEG3-DGlu-DGlu-DGlu-DGu-Lys(N4)−OH] ({X1-CO-3Abz-PEG3}-[dE][dE][dE][dE]K(X2)-OH) | pure antagonist profile |  |  | 
2 |  | CC(C)(C)C(=O)CN1C(=O)[C@H](NC(=O)Nc2cccc(C(=O)NCCOCCOCCOCCNC(=O)[C@H](CCC(=O)O)NC(=O)CN3CCN(CC(=O)O)CCN(CC(=O)O)CCN(CC(=O)O)CC3)c2)CN(C2CCCCC2)c2ccccc21 [GAS1, DOTA-DGlu-HN(PEG3)NH-Z360] |  | > 100 nM | 5.9 ± 1.8 nM | 
3 |  | CC(C)(C)C(=O)CN1C(=O)[C@H](NC(=O)Nc2cccc(C(=O)NCCOCCOCCOCCNC(=O)[C@H](CCC(=O)O)NC(=O)CCC(C(=O)O)N3CCN(CC(=O)O)CCN(CC(=O)O)CC3)c2)CN(C2CCCCC2)c2ccccc21 (some centres unmarked) [GAS2, NODAGA-DGlu-HN(PEG3)NH-Z360] |  | > 100 nM | 4.1 ± 1.1 nM | 
4 |  | CC(C)(C)C(=O)CN1C(=O)[C@H](NC(=O)Nc2cccc(C(=O)NCCOCCOCCOCCNC(=O)[C@H](CCC(=O)O)NC(=O)CCC(C(=O)O)N3CCN(CC(=O)O)CCN(CC(=O)O)CCN(CC(=O)O)CC3)c2)CN(C2CCCCC2)c2ccccc21 (some centres unmarked) [GAS3, DOTAGA-DGlu-HN(PEG3)NH-Z360] |  | > 100 nM | 3.1 ± 1.5 nM | 
5 |  | CC(C)(C)C(=O)CN1C(=O)C(NC(=O)Nc2cccc(C(=O)O)c2)CN(C2CCCCC2)c2ccccc21 (centres unmarked) [Z360] |  | > 100 nM | 1.2 ± 0.5 nM | 
6 | 100 pM | CC(C)C[C@H](NC(=O)[C@H](Cc1c[nH]c2ccccc12)NC(=O)CNC(=O)[C@H](Cc1ccc(O)cc1)NC(=O)[C@H](C)NC(=O)[C@H](CCC(=O)O)NC(=O)[C@H](CCC(=O)O)NC(=O)[C@H](CCC(=O)O)NC(=O)[C@H](CCC(=O)O)NC(=O)[C@H](CCC(=O)O)NC(=O)[C@H](CC(C)C)NC(=O)[C@H](Cc1c[nH]c2ccccc12)NC(=O)[C@@H]1CCCN1C(=O)CNC(=O)[C@@H]1CCC(=O)N1)C(=O)N[C@@H](CC(=O)O)C(=O)N[C@@H](Cc1ccccc1)C(N)=O [[Leu^15]gastrin-17, pGlu-Gly-Pro-Trp-Leu-(Glu)5-Ala-Tyr-Gly-Trp-Leu-Asp-Phe-NH2, reference compound] ([pGlu]GPWLEEEEEAYGWLDF-NH2) |  |  |  | failed to respond
